Literature values in patent publication US5948422A, “Oral dosage-forms containing a β-lactam antibiotic” (Yamanouchi Europe B.V., priority 1995, dated 1999).
Where a name gives a salt, the structure may show the parent alone.

Settings: compared with free acid, other salts and ester

Question: With `CC1(C)S[C@@H]2[C@H](NC(=O)COc3ccccc3)C(=O)N2[C@H]1C(=O)O` [potassium salt, phenoxymethylpenicillin potassium] as the compound, how does the “bioavailability on oral administration” value read?
Answer: Its value is “best bioavailability”.
